Series [1] can be described thus: Liver weight, body weight and liver to body weight ratio in normal and BDL rats. In kind it is in vivo, rat. The conditions noted are these: tap water containing melatonin (20 mg/L) for 1 week. The protocol: (§1) Male 344 Fischer rats (150-175 g) were purchased from Charles River (Wilmington, Mass.) and kept in a temperature-controlled environment (22° C.) with 12:12 hr light/dark cycles. Animals were fed ad libitum and had free access to food and drinking water. […] Before each surgical procedure, animals were anesthetized with sodium pentobarbital (50 mg/kg BW, IP). All animal experiments were performed in accordance with a protocol approved by the Scott and White and Texas A&M Health Science Center Institutional Animal Care and Use Committee and conform to the Guide for the Care and Use of Laboratory Animals published by the US National Institutes of Health (NIH Publication No. 85-23, revised 1996). In all animals, wet liver weight, body weight, wet liver weight to body weight ratio, and an index of liver cell growth including cholangiocytes were measured ([…] et al., 1988).

The test system of series [2] is large cholangiocyte lines. Description: PCNA expression and PKA, ERK1/2 phosphorylation (immunoblots) in immortalized large cholangiocytes. In kind it is cell-based, mouse. The conditions noted are these: melatonin 10^−11 M, 48 hours. An excerpt:
The expression of MT1 and MT2 receptors in immortalized large cholangiocytes was first evaluated by immunofluorescence (Francis et al., 2008). Images were visualized using an Olympus IX-71 confocal microscope. For all immunoreactions, negative controls (with normal serum from the same species substituted for the primary antibody) were included. It was next evaluated by commercially available radioimmunoassay (RIA) kits ([…] et al., 1998; Kato et al., 1992; […] et al., 1999; […] et al., 2004) for cAMP levels ([…] et al., 1998; Kato et al., 1992; […] Shiu et al., 2010). […] […] et al., 1992; Ramirez-Rodriguez et al., 2009; […], 1999). […] Shiu et al., 2010) before evaluating by immunoblots (Francis et al., 2008) the expression of PCNA and the phosphorylation of PKA and EKR1/2.
(In general: A western blot detects proteins with antibodies after separation by electrophoresis.)

The nature of series [3]: Serum transaminases (SGPT, SGOT) and total bilirubin in normal and BDL rats. In kind it is in vivo, rat. The settings on record: tap water containing melatonin (20 mg/L) for 1 week. The protocol: as §1, with “1988). In the selected groups of animals, the serum levels of the transaminases, serum glutamate pyruvate transaminases (SGPT) and serum glutamic oxaloacetic transaminase (SGOT) and total bilirubin were evaluated using a Dimension RxL Max Integrated Chemistry system (Dade Behring Inc., Deerfield Ill.) by the Chemistry Department, Scott & White. Melatonin serum levels were measured by commercially available ELISA kits according to the instructions provided by the vendor (Genway, San Diego, Calif.).” for “1988).”

A further series concerns large cholangiocytes. Description: Secretin-stimulated cAMP levels (RIA) in purified large cholangiocytes from treated BDL rats. The format is in vivo, rat. The settings on record: cholangiocytes from BDL rats treated with melatonin for 1 week; secretin 100 nM, 5 minutes. On the procedure:
The effect of secretin on cAMP levels was evaluated in purified large cholangiocytes and bile and bicarbonate secretion was evaluated in bile fistula rats, two functional indices of cholangiocyte hyperplasia (Alpini et al., 1998; Alpini et al., 1988; LeSage et al., 1999). Following purification, large cholangiocytes (1×10^5 cells) were incubated for 1 hour at 37° C. (Ishii et al., 1989) before stimulation with 0.2% bovine serum albumin (BSA) or secretin (100 nM) for 5 minutes at room temperature (Kato et al., 1992; LeSage et al., 1999; LeSage et al., 2004) before evaluation of cAMP levels by RIA (Alpini et al., 1998; Kato et al., 1992; LeSage et al., 1999; LeSage et al., 2004). For the studies of biliary physiology, after anesthesia, rats were surgically prepared for bile collection as described by us (Alpini et al., 1988). When steady-state bile flow was reached (60-70 minutes from the intravenous infusion of Krebs-Ringer-Henseleit solution, KRH), the animals were infused with secretin (100 nM) (LeSage et al., 1999; LeSage et al., 2004) for 30 minutes followed by IV infusion of KRH for 30 minutes (LeSage et al., 1999; LeSage et al., 2004). Bicarbonate concentration in bile was determined by an ABL™ 520 Blood Gas System (Radiometer Medical A/S, Copenhagen, Denmark).
For orientation: Changes in cAMP serve as a functional read-out for many G protein-coupled receptors.

The subject of a further series is AANAT. Description: AANAT morpholino in normal rats with or without CCl4 (liver sections, qPCR, immunoblots). The format is in vivo, rat. On the procedure: Methods: Normal rats were treated for 1 wk with AANAT morpholino (to reduce the biliary expression of AANAT) or scrambled morpholino (1 mg/kg BW/day) by a portal vein catheter before receiving a single dose of mineral oil or CCl4 (0.4 ml by gavage 1:1 in mineral oil/100 gm BW). Two days later, in liver sections the following was evaluated: (i) the hepatic expression of AANAT; and (ii) the percentage of TUNEL-positive cholangiocytes, and IBDM. In total liver tissue, the quantitative expression of AANAT, PCNA, Bax and Bcl-2 was studied by qPCR and immunoblots. In mouse cholangiocyte lines (NMC) stably overexpressing AANAT the expression of AANAT and CLOCK genes, melatonin secretion and biliary growth were studied after 48 hr incubation.
(In general: In qPCR the cycle at which signal appears reflects the starting amount.)

Where [4] appears, read: normal rats vs. scrambled morpholino.

With `COc1ccc2[nH]cc(CCNC(C)=O)c2c1` [melatonin], in series [1] (BDL rats), the Body weight was 150.1 ± 7.9 gm, the “Liver to body weight ratio” value is 4.5 ± 0.1 and the Liver weight worked out at 6.7 ± 0.1 gm. Also, in series [1] (normal rats), the Body weight is recorded as 206.6 ± 3.9 gm. The “PCNA expression and phosphorylation of PKA and ERK2 (but not ERK1)” value in series [2] was “decreased”. In series [3] (BDL rats), this molecule displayed an SGOT of 585.0 ± 162.4 Units/L, an SGPT of 210.8 ± 45.9 Units/L and a Total bilirubin of 7.3 ± 1.9 mg/L. Besides, in series [3] (normal rats), the SGOT was 143.0 ± 36.0 Units/L, the SGPT is listed as 69.4 ± 45.9 Units/L and the Total bilirubin is given as less than 0.1 mg/L. The “Effect of secretin on cAMP levels of large cholangiocytes” value in the series with large cholangiocytes was “did not enhance”.

For the molecule “AANAT Vivo-Morpholino: Vivo-Morpholino sequence of AANAT 5′-GTTCCCCAGCTTTGGAAGTGGTCCC (SEQ ID NO:1), to reduce the biliary expression of AANAT (all phosphorodiamidate morpholino (PMO); Vivo-Morpholino delivery moiety attached, position not given here, further chemistry not fully specified)”, in the series on AANAT (setting [4]), the “AANAT expression in liver tissue” value is “decreased” and the “PCNA expression in liver tissue” value is listed as “increased”. Further, the IBDM result with AANAT (normal rats, 1 mg/kg BW/day for 1 wk by portal vein catheter, vs. controls) is recorded as “enhanced”. In addition, in the series with AANAT (rats, 1 mg/kg BW/day for 1 wk then single dose of CCl4), the “Biliary apoptosis in response to CCl4” value is “absence”.
